Drawing on US20240425513A1, “OXAZOLE, OXADIAZOLE, AND INDOLE DERIVATIVES FOR THE INHIBITION OF USP28” (Carmot Therapeutics, Inc., priority 2021, published 2024), this text covers IC50 for 22 molecules.

The assay addresses His6 USP28 (Homo sapiens (Human), UniProt Q96RU2). As to the kind of experiment: Ubiquitin-Rhodamine 110 assay to determine USP28 IC50. Particulars: USP28 150 pM, Ub-Rho110 41 nM, 2 h pre-incubation with enzyme, fluorescence read. The assay is classed as biochemical. The protocol: Example 21. Ubiquitin-Rhodamine 110 Assay to Determine USP28 IC50
Each assay was performed in a final volume of 8 μl in assay buffer containing 10 mM HEPES pH 7.3 ((1 M, pH 7.3 solution, (VWR J848), 100 mM NaCl (5 M, Corning 46-032-CV), 0.01% Triton X-100 (Sigma #T8787), 3.5 mM DTT (1 M, Sigma #43819) and 0.00375% BSA (10%, Calbiochem, #126609)). The assay buffer pH was adjusted to 7.5 using 1 N NaOH (JT Baker, #5000-03). Stock compounds were stored at −80° C. as a 25 mM in DMSO solution along with their respective 20 point 2 fold serial dilutions. For the dose responses, stock compound plates were allowed to come to room temperature the day of the assay. […] of the serial dilution series were pre stamped into assay plates (Black, high base, medium binding, Greiner #782076) for a final top screening concentration of 125 μM (DMSO final concentration=0.5%). Enzyme (His6 USP28, BostonBiochem, #E-570) concentration and incubation times were optimized for the maximal signal to background while maintaining the initial velocity conditions at a fixed substrate concentration. The final concentration of the enzyme in the assay was 150 pM. Final substrate (Ub-Rhol10, Ubiquitin-Rhodamine 110, UBPBio, #M3020) concentration was 41 nM. 2 μl of 4× enzyme was added to assay plates (pre stamped with compound) and incubated for 2 h at room temperature. […] was subsequently added to the assay plates and incubated for 2 h at room temperature. Fluorescence was then read on the Envision (Excitation 485 nm and Emission at 535 nm, Perkin Elmer).

Broadly, the IC50 is the concentration that gives 50% inhibition. High values mean weaker potency, low ones greater potency.

The structures appear in SMILES notation.

His6 USP28, sequence (Q96RU2 whole entry): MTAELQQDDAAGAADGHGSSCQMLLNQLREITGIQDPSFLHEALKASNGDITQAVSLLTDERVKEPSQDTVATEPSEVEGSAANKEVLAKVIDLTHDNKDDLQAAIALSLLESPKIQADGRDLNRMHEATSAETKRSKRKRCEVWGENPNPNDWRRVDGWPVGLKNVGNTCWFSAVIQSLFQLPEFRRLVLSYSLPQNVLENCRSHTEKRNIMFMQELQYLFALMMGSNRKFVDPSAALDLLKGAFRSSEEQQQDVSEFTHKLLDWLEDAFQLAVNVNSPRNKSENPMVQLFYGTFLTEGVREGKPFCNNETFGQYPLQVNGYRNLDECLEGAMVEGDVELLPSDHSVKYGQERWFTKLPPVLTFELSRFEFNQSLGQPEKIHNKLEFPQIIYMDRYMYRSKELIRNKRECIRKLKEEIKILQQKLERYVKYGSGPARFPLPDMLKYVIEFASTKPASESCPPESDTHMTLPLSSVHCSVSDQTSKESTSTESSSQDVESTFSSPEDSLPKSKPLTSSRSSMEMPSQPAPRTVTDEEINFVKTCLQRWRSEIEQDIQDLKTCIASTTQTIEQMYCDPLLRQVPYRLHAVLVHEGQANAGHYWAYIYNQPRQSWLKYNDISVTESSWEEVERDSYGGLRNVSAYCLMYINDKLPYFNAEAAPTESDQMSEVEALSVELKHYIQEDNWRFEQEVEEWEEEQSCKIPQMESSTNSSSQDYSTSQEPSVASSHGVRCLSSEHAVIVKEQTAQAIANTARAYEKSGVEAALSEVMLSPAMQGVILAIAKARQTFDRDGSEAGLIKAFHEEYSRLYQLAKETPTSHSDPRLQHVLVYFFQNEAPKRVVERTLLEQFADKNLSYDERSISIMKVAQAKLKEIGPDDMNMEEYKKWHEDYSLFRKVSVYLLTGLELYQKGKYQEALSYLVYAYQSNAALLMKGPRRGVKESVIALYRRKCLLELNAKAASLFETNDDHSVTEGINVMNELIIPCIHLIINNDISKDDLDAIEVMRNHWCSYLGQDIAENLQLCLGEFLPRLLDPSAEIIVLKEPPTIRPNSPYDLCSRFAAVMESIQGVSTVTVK

`Cc1oc(Cc2cccc(Cl)c2)nc1-c1ccc(/C=C/C(=O)N[C@@H]2C[C@@H](C)N(C#N)C2)cc1` [Compound 14, (E)-3-(4-(2-(3-Chlorobenzyl)-5-methyloxazol-4-yl)phenyl)-N-((3R,5R)-1-cyano-5-methylpyrrolidin-3-yl)acrylamide] showed a concentration for half-maximal inhibition (IC50) of 50 to 500 nM.
For `CN(C)C(=O)c1ccc(OCc2ccc(-c3nc(Cc4cccc(Cl)c4)no3)cc2)cc1` [Compound 18, 4-((4-(3-(3-Chlorobenzyl)-1,2,4-oxadiazol-5-yl)benzyl)oxy)-N,N-dimethylbenzamide] the value was 50 to 500 nM.
In turn, `Cc1oc(Cc2cccc(Cl)c2)nc1-c1ccc(OCc2ccc(C(=O)N(C)C)nn2)cc1` [Compound 25, 6-[(4-{2-[(3-Chlorophenyl)methyl]-5-methyl-1,3-oxazol-4-yl}phenoxy)methyl]-N,N-dimethylpyridazine-3-carboxamide] showed an IC50 of less than 50 nM.
Regarding `C[C@@H]1C[C@@H](NC(=O)COc2ccc(-c3nc(Cc4ccccc4)no3)cc2)CN1C#N` [Compound 2, 2-[4-(3-Benzyl-1,2,4-oxadiazol-5-yl)phenoxy]-N-[(3R,5R)-1-cyano-5-methylpyrrolidin-3-yl]acetamide], the concentration for half-maximal inhibition (IC50) was more than 1000 nM.
`C[C@@H]1C[C@@H](NC(=O)NCc2ccc(-c3nc(Cc4cccc(Cl)c4)no3)cc2)CN1C#N` [Compound 10, 1-(4-(3-(3-Chlorobenzyl)-1,2,4-oxadiazol-5-yl)benzyl)-3-((3R,5R)-1-cyano-5-methylpyrrolidin-3-yl)urea]: the IC50 was 50 to 500 nM.
On to `C[C@@H]1C[C@@H](NC(=O)COc2ccc(-c3nc(Cc4cccc(Cl)c4)no3)cc2)CN1C#N` [Compound 3, 2-(4-(3-(3-Chlorobenzyl)-1,2,4-oxadiazol-5-yl)phenoxy)-N-((3R,5R)-1-cyano-5-methylpyrrolidin-3-yl)acetamide], for which the IC50 lay in the range of 50 to 500 nM.
To `Cc1ccc(C(=O)NCc2ccc(-c3nc(Cc4cccc(Cl)c4)no3)cc2)cn1` [Compound 19, N-[(4-{3-[(3-Chlorophenyl)methyl]-1,2,4-oxadiazol-5-yl}phenyl)methyl]-6-methylpyridine-3-carboxamide] belongs 500 to 1000 nM; to `Cc1oc(Cc2cccc(Cl)c2)nc1-c1ccc(COc2ccc(C(=O)N(C)CCN3CCCNC3=O)cc2)cc1` [Compound 44, 4-[(4-{2-[(3-Chlorophenyl)methyl]-5-methyl-1,3-oxazol-4-yl}phenyl)methoxy]-N-methyl-N-[2-(2-oxo-1,3-diazinan-1-yl)ethyl]benzamide], less than 50 nM.
`C/C(=C\c1ccc(-c2nc(Cc3cccc(Cl)c3)no2)cc1)C(=O)N[C@@H]1C[C@@H](C)N(C#N)C1` [Compound 13, (E)-3-(4-(3-(3-chlorobenzyl)-1,2,4-oxadiazol-5-yl)phenyl)-N-((3R,5R)-1-cyano-5-methylpyrrolidin-3-yl)-2-methylacrylamide] showed a concentration for half-maximal inhibition (IC50) of 500 to 1000 nM.
`CN[C@@H]1CCN(C(=O)c2ccc(COc3ccc(-c4nc(Cc5cccc(Cl)c5)oc4C)cc3)nc2)C1` [Compound 36, (3R)-1-{6-[(4-{2-[(3-Chlorophenyl)methyl]-5-methyl-1,3-oxazol-4-yl}phenoxy)methyl]pyridine-3-carbonyl}-N-methylpyrrolidin-3-amine] displayed a half-maximal inhibitory concentration (IC50) of less than 50 nM.
To `Cc1cccc(Cc2noc(-c3ccc(OCC(=O)N[C@@H]4C[C@@H](C)N(C#N)C4)cc3)n2)c1` [Compound 9, N-[(3R,5R)-1-Cyano-5-methylpyrrolidin-3-yl]-2-(4-{3-[(3-methylphenyl)methyl]-1,2,4-oxadiazol-5-yl}phenoxy)acetamide] belongs 50 to 500 nM; to `C[C@@H]1C[C@@H](NC(=O)COc2ccc(-c3nc(Cc4cccc(Cl)c4)no3)nc2)CN1C#N` [Compound 12, 2-[(6-{3-[(3-Chlorophenyl)methyl]-1,2,4-oxadiazol-5-yl}pyridin-3-yl)oxy]-N-[(3R,5R)-1-cyano-5-methylpyrrolidin-3-yl]acetamide], more than 1000 nM; to `C[C@@H]1C[C@@H](NC(=O)COc2ccc(-c3nc(Cc4cccc(C(F)(F)F)c4)no3)cc2)CN1C#N` [Compound 6, N-[(3R,5R)-1-Cyano-5-methylpyrrolidin-3-y1]-2-[4-(3-{[3-(trifluoromethyl)phenyl]methyl}-1,2,4-oxadiazol-5-y1)phenoxy]acetamide], 50 to 500 nM.
For `Cc1oc(Cc2cccc(Cl)c2)nc1-c1ccc(OCc2cnc(C(=O)N(C)C)cn2)cc1` [Compound 28, 5-[(4-{2-[(3-Chlorophenyl)methyl]-5-methyl-1,3-oxazol-4-yl}phenoxy)methyl]-N,N-dimethylpyrazine-2-carboxamide], the 50% inhibitory concentration (IC50) was less than 50 nM.
In turn, `C[C@@H]1C[C@@H](NC(=O)COc2ccc(-c3nc(Cc4cccc(C#N)c4)no3)cc2)CN1C#N` [Compound 8, N-((3R,5R)-1-Cyano-5-methylpyrrolidin-3-yl)-2-(4-(3-(3-cyanobenzyl)-1,2,4-oxadiazol-5-yl)phenoxy)acetamide] had an IC50 of 500 to 1000 nM.
For `Cc1oc(Cc2cccc(Cl)c2)nc1-c1ccc(OCc2ccc(C(=O)N(C)C)cc2COCCO)cc1` [Compound 33, 4-((4-(2-(3-Chlorobenzyl)-5-methyloxazol-4-yl)phenoxy)methyl)-3-((2-hydroxyethoxy)methyl)-N,N-dimethylbenzamide], the 50% inhibitory concentration (IC50) was less than 50 nM.
For `COc1cccc(Cc2noc(-c3ccc(OCC(=O)N[C@@H]4C[C@@H](C)N(C#N)C4)cc3)n2)c1` [Compound 7, N-[(3R,5R)-1-Cyano-5-methylpyrrolidin-3-yl]-2-(4-{3-[(3-methoxyphenyl)methyl]-1,2,4-oxadiazol-5-yl}phenoxy)acetamide] the value was more than 1000 nM; for `Cc1oc(Cc2cccc(Cl)c2)nc1-c1ccc(OCc2ccc(C(=O)N3CCC(N)CC3)cn2)cc1` [Compound 38, 1-{6-[(4-{2-[(3-Chlorophenyl)methyl]-5-methyl-1,3-oxazol-4-yl}phenoxy)methyl]pyridine-3-carbonyl}piperidin-4-amine], less than 50 nM.
The molecule `N#CN1C[C@H](NC(=O)COc2ccc(-c3nc(Cc4ccccc4)no3)cc2)C[C@H]1CF` [Compound 1, 2-[4-(3-Benzyl-1,2,4-oxadiazol-5-yl)phenoxy]-N-[(3R,5S)-1-cyano-5-(fluoromethyl)pyrrolidin-3-yl]acetamide] had an IC50 of more than 1000 nM.
As to `Cc1oc(Cc2cccc(Cl)c2)nc1-c1ccc(OCc2ccc(C(=O)N3CCC[C@@H](C(=O)O)C3)cn2)cc1` [Compound 32, (3R)-1-{6-[(4-{2-[(3-Chlorophenyl)methyl]-5-methyl-1,3-oxazol-4-yl}phenoxy)methyl]pyridine-3-carbonyl}piperidine-3-carboxylic acid], the half-maximal inhibitory concentration (IC50) is less than 50 nM.
On to `Cc1oc(Cc2ccnc(Cl)c2)nc1-c1ccc(OCc2ccc(C(=O)N(C)C)cn2)cc1` [Compound 31, 6-[(4-{2-[(2-Chloropyridin-4-yl)methyl]-5-methyl-1,3-oxazol-4-yl}phenoxy)methyl]-N,N-dimethylpyridine-3-carboxamide], for which the half-maximal inhibitory concentration (IC50) was in the range of 50 to 500 nM.
With `CN[C@H]1CCCN(C(=O)c2ccc(COc3ccc(-c4nc(Cc5cccc(Cl)c5)oc4C)cc3)nc2)C1` [Compound 40, (3S)-1-{6-[(4-{2-[(3-Chlorophenyl)methyl]-5-methyl-1,3-oxazol-4-yl}phenoxy)methyl]pyridine-3-carbonyl}-N-methylpiperidin-3-amine], the 50% inhibitory concentration (IC50) was less than 50 nM.
